# Measurements from patent publication US4008227A, “Cephalosporins” (Takeda Chemical Industries, Ltd., priority 1973, dated 1977).
# Where a name gives a salt, the structure may show the parent alone.
# Key:
# Format in all cases: cell-based
# [1] = system: Staphylococcus aureus 209P; assay: MIC against Staphylococcus aureus 209P
# [2] = system: Staphylococcus aureus No. 87; assay: MIC against Staphylococcus aureus No. 87
# [3] = system: Bucillus subtilis PCI 219; assay: MIC against Bucillus subtilis PCI 219
# Sarcina lutea PCI 1001 = assay: MIC against Sarcina lutea PCI 1001; details: Micrococcus luteus, PCI1001
# Escherichia coli NIHJ = assay: MIC against Escherichia coli NIHJ
# Proteus vulgaris Eb51 = assay: MIC against Proteus vulgaris Eb51
# Proteus mirabilis Eb59 = assay: MIC against Proteus mirabilis Eb59
# [4] = system: Staphylococcus aureus 1840; assay: MIC against Staphylococcus aureus 1840
# Klebsiella pneumoniae = assay: MIC against Klebsiella pneumoniae
# Proteus vulgaris = assay: MIC against Proteus vulgaris (strain not given)
# Proteus morganii Eb53 = assay: MIC against Proteus morganii Eb53; details: Morganella morganii
SMILES,MIC [1] [µg/mL],MIC [2] [µg/mL],MIC [3] [µg/mL],MIC (Sarcina lutea PCI 1001) [µg/mL],MIC (Escherichia coli NIHJ) [µg/mL],MIC (Proteus vulgaris Eb51) [µg/mL],MIC (Proteus mirabilis Eb59) [µg/mL],MIC [4] [µg/mL],MIC (Klebsiella pneumoniae) [µg/mL],MIC (Proteus vulgaris) [µg/mL],MIC (Proteus morganii Eb53) [µg/mL]
"Cc1ccc(SCC2=C(C(=O)O)N3C(=O)C(NC(=O)[C@H](O)c4ccccc4)C3SC2)n[n+]1[O-] (single isomer, unassigned) [Example 1, 7-[D-(-)-mandelamido]-3-[6'-(3'-methylpyridazinyl)thiomethyl] -3-cephem-4-carboxylic acid 2'-oxide sodium salt]",0.1,5,< 0.01,0.2,0.5,1,5,,,,
"O=C(O)C1=C(CSc2ccc(Cl)n[n+]2[O-])CSC2C(NC(=O)[C@H](O)c3ccccc3)C(=O)N12 (single isomer, unassigned) [Example 7, 7-[D-(-)-mandelamido]-3-[6'-(3'-chloropyridazinyl)thiomethyl]-3-cephem-4-carboxylic acid 1'-oxide sodium salt]",< 0.78,,,,1.56,,,< 1.56,< 0.78,3.12,25
"Cc1ccc(SCC2=C(C(=O)O)N3C(=O)C(NC(=O)C[n+]4cc([O-])on4)C3SC2)n[n+]1[O-] (stereo not shown) [Example 11, 7-[2'-(3'-sydnone)acetamido]-3-[6""-(3""-methylpyridazinyl)thiomethyl]-3-cephem-4-carboxylic acid 2""-oxide]",< 0.78,,,,1.56,,,1.56,1.56,,
"O=C(C[n+]1cc([O-])on1)NC1C(=O)N2C(C(=O)O)=C(CSc3ccc(Cl)n[n+]3[O-])CSC12 (stereo not shown) [Example 12, 7-[2'-(3'-sydnone)acetamido]-3[6""-(3""-chloropyridazinyl)-thiomethyl]-3-cephem-4-carboxylic acid 1""-oxide sodium salt]",< 0.78,,,,1.56,,,1.56,1.56,,

# Next, values leading:
MIC [1] [µg/mL],MIC [2] [µg/mL],MIC [3] [µg/mL],MIC (Sarcina lutea PCI 1001) [µg/mL],MIC (Escherichia coli NIHJ) [µg/mL],MIC (Proteus vulgaris Eb51) [µg/mL],MIC (Proteus mirabilis Eb59) [µg/mL],MIC [4] [µg/mL],MIC (Klebsiella pneumoniae) [µg/mL],MIC (Proteus vulgaris) [µg/mL],MIC (Proteus morganii Eb53) [µg/mL],SMILES
< 0.78,,,,1.56,,,1.56,1.56,,,"COc1ccc(SCC2=C(C(=O)O)N3C(=O)C(NC(=O)[C@H](O)c4ccccc4)C3SC2)[n+]([O-])n1 (single isomer, unassigned) [Example 6, 7-[D-(-)-mandelamido]-3-[6'-(3'-methoxypyridazinyl)thiomethyl]-3-cephem-4-carboxylic acid 1'-oxide sodium salt]"
< 0.78,,,,,,,1.56,1.56,,,"COc1ccc(SCC2=C(C(=O)O)N3C(=O)C(NC(=O)C[n+]4cc([O-])on4)C3SC2)[n+]([O-])n1 (stereo not shown) [Example 13, 7-[2'-(3'-sydnone)acetamido]-3-[6""-(3""-methoxypyridazinyl)thiomethyl]-3-cephem-4-carboxylic acid 1""-oxide sodium salt]"
